Target: T1, Human NK1 Receptor (Homo sapiens, UniProt P25103)
T1 construct: endogenous in cells; host or cells: Human lymphoma IM9 cells (whole cells)
Assay: In Vitro Human NK1 Receptor Binding Assay ([125I]Bolton-Hunter substance P displacement, IM9 cells)
Settings: human NK1 receptor, IM9 cells, [125I]Bolton-Hunter substance P; read-out: IC50 (nM) hNK1
Method in brief: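 Radioligand displacement on whole IM9 human lymphoma cells (2.5×10^6 cells/mL) using [125I]Bolton-Hunter substance P (0.05-0.1 nM), 50 min at 21° C in Tris pH 7.4/MnCl2 buffer with protease inhibitors. Non-specific binding defined by […] [Sar9, Met(O2)11] substance P. Filtration, gamma counting, iterative curve fitting.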

T1 sequence (P25103 whole entry): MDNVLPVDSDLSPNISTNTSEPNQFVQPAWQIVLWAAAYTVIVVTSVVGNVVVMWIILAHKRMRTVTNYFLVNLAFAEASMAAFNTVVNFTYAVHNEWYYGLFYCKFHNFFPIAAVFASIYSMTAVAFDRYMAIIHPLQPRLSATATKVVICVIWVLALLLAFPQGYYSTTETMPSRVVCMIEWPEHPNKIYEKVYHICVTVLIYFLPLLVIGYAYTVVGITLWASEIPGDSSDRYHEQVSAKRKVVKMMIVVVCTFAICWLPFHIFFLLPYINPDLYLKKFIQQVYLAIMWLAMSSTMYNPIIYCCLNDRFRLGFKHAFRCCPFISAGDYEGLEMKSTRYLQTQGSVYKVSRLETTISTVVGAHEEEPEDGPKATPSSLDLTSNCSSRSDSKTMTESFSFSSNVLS

Row | IC50 | SMILES
1 | 29 nM | CC(Cc1c[nH]c2ccccc12)(NCc1cc2ccccc2o1)C(=O)NCc1ccc(F)c(F)c1 (stereo not shown) [compound 167, 2-[(Benzofuran-2-ylmethyl)-amino]-N-(3,4-difluoro-benzyl)-3-(1H-indol-3-yl)-2-methyl-propionamide]
2 | 6020 nM | Cc1cc(C)c(CNC(=O)C(C)(Cc2c[nH]c3ccccc23)NCc2cc3ccccc3o2)cn1 (stereo not shown) [compound 169, 2-[(Benzofuran-2-ylmethyl)-amino]-N-(4,6-dimethyl-pyridin-3-ylmethyl)-3-(1H-indol-3-yl)-2-methyl-propionamide]
3 | 2380 nM | CC(Cc1c[nH]c2ccccc12)(NCc1cc2ccccc2o1)C(=O)NCc1cc(Br)ccc1O (stereo not shown) [compound 170, 2-[(Benzofuran-2-ylmethyl)-amino]-N-(5-bromo-2-hydroxy-benzyl)-3-(1H-indol-3-yl)-2-methyl-propionamide]
4 | > 10000 nM | CC(Cc1c[nH]c2ccccc12)(NCc1cc2ccccc2o1)C(=O)NCc1ccc(C(=O)O)cc1 (stereo not shown) [compound 171, 4-{[2-[(Benzofuran-2-ylmethyl)-amino]-3-(1H-indol-3-yl)-2-methyl-propionylamino]-methyl}-benzoic acid]
5 | 153 nM | CC(Cc1c[nH]c2ccccc12)(NCc1cc2ccccc2o1)C(=O)NCCc1cccs1 (stereo not shown) [compound 172, 2-[(Benzofuran-2-ylmethyl)-amino]-3-(1H-indol-3-yl)-2-methyl-N-(2-thiophen-2-yl-ethyl)-propionamide]
6 | > 10000 nM | CC(Cc1c[nH]c2ccccc12)(NCc1cc2ccccc2o1)C(=O)NCC(=O)N1CCOCC1 (stereo not shown) [compound 173, 2-[(Benzofuran-2-ylmethyl)-amino]-3-(1H-indol-3-yl)-2-methyl-N-(2-morpholin-4-yl-2-oxo-ethyl)-propionamide]
7 | 94 nM | CC(Cc1c[nH]c2ccccc12)(NCc1cc2ccccc2o1)C(=O)NCc1ccc2c(c1)OCO2 (stereo not shown) [compound 174, N-Benzo[1,3]dioxol-5-ylmethyl-2-[(benzofuran-2-ylmethyl)-amino]-3-(1H-indol-3-yl)-2-methyl-propionamide]
8 | 96 nM | CC(Cc1c[nH]c2ccccc12)(NCc1cc2ccccc2o1)C(=O)NCc1ccc(Cl)c(Cl)c1 (stereo not shown) [compound 175, 2-[(Benzofuran-2-ylmethyl)-amino]-N-(3,4-dichloro-benzyl)-3-(1H-indol-3-yl)-2-methyl-propionamide]
9 | 1760 nM | COC(=O)C(Cc1c[nH]cn1)NC(=O)C(C)(Cc1c[nH]c2ccccc12)NCc1cc2ccccc2o1 (stereo not shown) [compound 176, 2-[2-[(Benzofuran-2-ylmethyl)-amino]-3-(1H-indol-3-yl)-2-methyl-propionylamino]-3-(1H-imidazol-4-yl)-propionic acid methyl ester]
10 | 444 nM | CC(Cc1c[nH]c2ccccc12)(NCc1cc2ccccc2o1)C(=O)NCc1ccc(Cl)cc1F (stereo not shown) [compound 177, 2-[(Benzofuran-2-ylmethyl)-amino]-N-(4-chloro-2-fluoro-benzyl)-3-(1H-indol-3-yl)-2-methyl-propionamide]
11 | 1370 nM | CC(Cc1c[nH]c2ccccc12)(NCc1cc2ccccc2o1)C(=O)NCc1cccc(N)c1 (stereo not shown) [compound 178, N-(3-Amino-benzyl)-2-[(benzofuran-2-ylmethyl)-amino]-3-(1H-indol-3-yl)-2-methyl-propionamide]
12 | 5920 nM | CC(Cc1c[nH]c2ccccc12)(NCc1cc2ccccc2o1)C(=O)NCc1cnc(N)nc1N (stereo not shown) [compound 179, 2-[(Benzofuran-2-ylmethyl)-amino]-N-(2,4-diamino-pyrimidin-5-ylmethyl)-3-(1H-indol-3-yl)-2-methyl-propionamide]
13 | 266 nM | CC(Cc1c[nH]c2ccccc12)(NCc1cc2ccccc2o1)C(=O)NCc1ccccc1F (stereo not shown) [compound 180, 2-[(Benzofuran-2-ylmethyl)-amino]-N-(2-fluoro-benzyl)-3-(1H-indol-3-yl)-2-methyl-propionamide]
14 | 269 nM | CC(Cc1c[nH]c2ccccc12)(NCc1cc2ccccc2o1)C(=O)NCc1ccc(F)cc1F (stereo not shown) [compound 181, 2-[(Benzofuran-2-ylmethyl)-amino]-N-(2,4-difluoro-benzyl)-3-(1H-indol-3-yl)-2-methyl-propionamide]
15 | > 10000 nM | CC(Cc1c[nH]c2ccccc12)(NCc1cc2ccccc2o1)C(=O)NCc1ccc(O)c(O)c1 (stereo not shown) [compound 182, 2-[(Benzofuran-2-ylmethyl)-amino]-N-(3,4-dihydroxy-benzyl)-3-(1H-indol-3-yl)-2-methyl-propionamide]
16 | > 10000 nM | CC(Cc1c[nH]c2ccccc12)(NCc1cc2ccccc2o1)C(=O)NC(CO)Cc1c[nH]cn1 (stereo not shown) [compound 183, 2-[(Benzofuran-2-ylmethyl)-amino]-N-[1-hydroxymethyl-2-(1H-imidazol-4-yl)-ethyl]-3-(1H-indol-3-yl)-2-methyl-propionamide]
17 | > 10000 nM | CC(Cc1c[nH]c2ccccc12)(NCc1cc2ccccc2o1)C(=O)NCCCN1CCOCC1 (stereo not shown) [compound 185, 2-[(Benzofuran-2-ylmethyl)-amino]-3-(1H-indol-3-yl)-2-methyl-N-(3-morpholin-4-yl-propyl)-propionamide]
18 | 84 nM | CC(Cc1c[nH]c2ccccc12)(NCc1cc2ccccc2o1)C(=O)NCc1ccccc1O (stereo not shown) [compound 186, 2-[(Benzofuran-2-ylmethyl)-amino]-N-(2-hydroxy-benzyl)-3-(1H-indol-3-yl)-2-methyl-propionamide]
19 | 131 nM | COc1ccc(CNC(=O)C(C)(Cc2c[nH]c3ccccc23)NCc2cc3ccccc3o2)cc1F (stereo not shown) [compound 187, 2-[(Benzofuran-2-ylmethyl)-amino]-N-(3-fluoro-4-methoxy-benzyl)-3-(1H-indol-3-yl)-2-methyl-propionamide]
20 | 2280 nM | COc1ccc(CNC(=O)C(C)(Cc2c[nH]c3ccccc23)NCc2cc3ccccc3o2)c(N)c1 (stereo not shown) [compound 188, N-(2-Amino-4-methoxy-benzyl)-2-[(benzofuran-2-ylmethyl)-amino]-3-(1H-indol-3-yl)-2-methyl-propionamide]
21 | 1130 nM | CC(Cc1c[nH]c2ccccc12)(NCc1cc2ccccc2o1)C(=O)NCc1ccccc1Cl (stereo not shown) [compound 189, 2-((Benzofuran-2-ylmethyl)-amino]-N-(2-chloro-benzyl)-3-(1H-indol-3-yl)-2-methyl-propionamide]
22 | 3540 nM | CC(Cc1c[nH]c2ccccc12)(NCc1cc2ccccc2o1)C(=O)NCc1c(F)cccc1F (stereo not shown) [compound 190, 2-[(Benzofuran-2-ylmethyl)-amino]-N-(2,6-difluoro-benzyl)-3-(1H-indol-3-yl)-2-methyl-propionamide]
23 | 55 nM | CC(Cc1c[nH]c2ccccc12)(NCc1cc2ccccc2o1)C(=O)NCc1ccc(F)c(Cl)c1 (stereo not shown) [compound 191, 2-[(Benzofuran-2-ylmethyl)-amino]-N-(3-chloro-4-fluoro-benzyl)-3-(1H-indol-3-yl)-2-methyl-propionamide]

Row | SMILES | IC50
24 | CC(Cc1c[nH]c2ccccc12)(NCc1cc2ccccc2o1)C(=O)NCc1ccc(F)cc1Cl (stereo not shown) [compound 168] | 230 nM
25 | CC(Cc1c[nH]c2ccccc12)(NCc1cc2ccccc2o1)C(=O)NCC1CCCCC1O (stereo not shown) [compound 184, 2-[(Benzofuran-2-ylmethyl)-amino]-N-(2-hydroxy-cyclohexylmethyl)-3-(1H-indol-3-yl)-2-methyl-propionamide] | > 10000 nM
